System: SARS-CoV-2 strain USA-WA1/2020
Assay: microbe, parasite or virus in culture
Format: cell-based
Details: Severe acute respiratory syndrome coronavirus 2, HeLa-ACE2, 24 h, HeLa-ACE2 cells, SARS-CoV-2 infection, 24 h; bound printed in cell; read-out: EC50, uM (Hela)

In the case of `CC(C)C[C@H](NC(=O)C(N)=O)C(=O)N[C@@H](C[C@@H]1CCNC1=O)C(=O)COC(F)(F)F` [Compound 239, N1-((S)-4-methyl-1-oxo-1-(((S)-3-oxo-1-((S)-2-oxopyrrolidin-3-yl)-4-(trifluoromethoxy)butan-2-yl)amino)pentan-2-yl)oxalamide], the EC50 is reported as > 1 µM.

Same assay, conditions: Severe acute respiratory syndrome coronavirus 2, HeLa-ACE2, 24 h, HeLa-ACE2 cells, SARS-CoV-2 infection, 24 h; class symbols; read-out: EC50, uM (Hela)

`COc1cccc(NC(=O)C(=O)N[C@@H](CC(C)C)C(=O)N[C@@H](C[C@@H]2CCNC2=O)C(=O)COc2c(F)c(F)cc(F)c2F)c1` [Compound 120, N1-(3-methoxyphenyl)-N2-((S)-4-methyl-1-oxo-1-(((S)-3-oxo-1-((S)-2-oxopyrrolidin-3-yl)-4-(2,3,5,6-tetrafluorophenoxy)butan-2-yl)amino)pentan-2-yl)oxalamide] and `CC(C)C[C@H](NC(=O)C(=O)Nc1c(F)cccc1F)C(=O)N[C@@H](C[C@@H]1CCNC1=O)C(=O)COc1c(F)c(F)cc(F)c1F` [Compound 47, N1-(2,6-difluorophenyl)-N2-((S)-4-methyl-1-oxo-1-(((S)-3-oxo-1-((S)-2-oxopyrrolidin-3-yl)-4-(2,3,5,6-tetrafluorophenoxy)butan-2-yl)amino)pentan-2-yl)oxalamide] cannot be ordered by EC50: < 0.05 µM for the first, < 0.05 µM for the second.

`O=C1NCC[C@H]1C[C@H](NC(=O)[C@@H]1[C@H]2CCC[C@H]2CN1C(=O)C12CCC(CC1)O2)C(=O)COC(F)(F)F` [Compound 308, (1S,3aR,6aS)-2-(7-oxabicyclo[2.2.1]-heptane-1-carbonyl)-N-((S)-3-oxo-1-((S)-2-oxopyrrolidin-3-yl)-4-(trifluoromethoxy)butan-2-yl)octahydrocyclo-penta[c]pyrrole-1-carboxamide] and `CC[C@@H](OC)C(=O)N1C[C@H]2[C@@H]([C@H]1C(=O)N[C@@H](C[C@@H]1CCNC1=O)C(=O)COC(F)(F)F)C2(C)C` [Compound 336, (1R,2S,5S)-3-((R)-2-methoxybutanoyl)-6,6-dimethyl-N—((S)-3-oxo-1-((S)-2-oxopyrrolidin-3-yl)-4-(trifluoromethoxy)butan-2-yl)-3-azabicyclo[3.1.0]hexane-2-carboxamide] fall in the same range of EC50: 0.05 to 0.2 µM for the first, 0.05 to 0.2 µM for the second.

`CC(C)C[C@H](NC(=O)C(=O)NC(C)(C)C)C(=O)N[C@@H](C[C@@H]1CCNC1=O)C(=O)COc1c(F)c(F)cc(F)c1F` [Compound 100, N1-(tert-butyl)-N2-((S)-4-methyl-1-oxo-1-(((S)-3-oxo-1-((S)-2-oxopyrrolidin-3-yl)-4-(2,3,5,6-tetrafluorophenoxy)butan-2-yl)amino)pentan-2-yl)oxalamide] and `CC(C)[C@H](NC(=O)C(=O)Nc1ccccc1F)C(=O)N[C@@H](C[C@@H]1CCNC1=O)C(=O)COc1c(F)c(F)cc(F)c1F` [Compound 90, N1-(2-fluorophenyl)-N2-((S)-3-methyl-1-oxo-1-(((S)-3-oxo-1-((S)-2-oxopyrrolidin-3-yl)-4-(2,3,5,6-tetrafluorophenoxy)butan-2-yl)amino)butan-2-yl)oxalamide] fall in the same range of EC50: 0.05 to 0.2 µM for the first, 0.05 to 0.2 µM for the second.

`CC(C)(C)[C@@H](O)C(=O)N1C[C@H]2[C@@H]([C@H]1C(=O)N[C@@H](C[C@@H]1CCNC1=O)C(=O)COC(F)(F)F)C2(C)C` [Compound 343, (1R,2S,5S)-3-((R)-2-hydroxy-3,3-dimethylbutanoyl)-6,6-dimethyl-N-((S)-3-oxo-1-((S)-2-oxopyrrolidin-3-yl)-4-(trifluoromethoxy)butan-2-yl)-3-azabicyclo[3.1.0]-hexane-2-carboxamide] and `O=C(N[C@@H](CC1CC1)C(=O)N[C@@H](C[C@@H]1CCNC1=O)C(=O)COC(F)(F)F)c1cc(-c2ccccc2)n[nH]1` [Compound 192, N-((S)-3-cyclopropyl-1-oxo-1-(((S)-3-oxo-1-((S)-2-oxopyrrolidin-3-yl)-4-(trifluoromethoxy)butan-2-yl)amino)propan-2-yl)-3-phenyl-1H-pyrazole-5-carboxamide] fall in the same range of EC50: 0.05 to 0.2 µM for the first, 0.05 to 0.2 µM for the second.

In the case of `CC(C)C[C@H](NC(=O)c1cc(-c2ccccc2F)on1)C(=O)N[C@@H](C[C@@H]1CCNC1=O)C(=O)COC(F)(F)F` [Compound 171, 5-(2-fluorophenyl)-N-((S)-4-methyl-1-oxo-1-(((S)-3-oxo-1-((S)-2-oxopyrrolidin-3-yl)-4-(trifluoromethoxy)butan-2-yl)amino)pentan-2-yl)isoxazole-3-carboxamide], the EC50 is reported as < 0.05 µM.

Same assay, conditions: Severe acute respiratory syndrome coronavirus 2, HeLa-ACE2, 24 h, HeLa-ACE2 cells, SARS-CoV-2 infection, 24 h; given as bound; read-out: EC50, uM (Hela)

With `CC1(NC(=O)C(=O)N2[C@H](C(=O)N[C@@H](C[C@@H]3CCNC3=O)C(=O)COC(F)(F)F)CCC23CC3)CC1` [Compound 541, (S)-4-(2-((l-methyl-cyclopropyl)amino)-2-oxoacetyl)-N-((S)-3-oxo-1-((S)-2-oxopyrrolidin-3-yl)-4-(trifluoromethoxy)butan-2-yl)-4-azaspiro-[2.4]heptane-5-carboxamide] the EC50 was > 1 µM.

Same assay, conditions: Severe acute respiratory syndrome coronavirus 2, HeLa-ACE2, 24 h, HeLa-ACE2 cells, SARS-CoV-2 infection, 24 h; read-out: EC50, uM (Hela)

`CC1(C)[C@@H]2[C@@H](C(=O)N[C@@H](C[C@@H]3CCNC3=O)C(=O)COC(F)(F)F)N(C(=O)C(=O)NCC(F)F)C[C@@H]21` [Compound 516, (1R,2S,5S)-3-(2-((2,2-difluoroethyl)amino)-2-oxoacetyl)-6,6-dimethyl-N-((S)-3-oxo-1-((S)-2-oxopyrrolidin-3-yl)-4-(trifluoromethoxy)butan-2-yl)-3-azabicyclo-[3.1.0]hexane-2-carboxamide] and `CC(C)(C)NC(=O)C(=O)N1C[C@@H]2C(F)CC[C@@H]2[C@H]1C(=O)N[C@@H](C[C@@H]1CCNC1=O)C(=O)COC(F)(F)F` (stereo partly drawn) [Compound 601, (1S,3aR,6aS)-2-(2-(tert-butylamino)-2-oxoacetyl)-4-fluoro-N-((S)-3-oxo-1-((S)-2-oxopyrrolidin-3-yl)-4-(trifluoromethoxy)butan-2-yl)octahydrocyclo-penta[c]pyrrole-1-carboxamide] fall in the same range of EC50: 0.05 to 0.2 µM for the first, 0.05 to 0.2 µM for the second.

`O=C(Nc1c(F)cccc1Cl)C(=O)N1CC2(CC2)C[C@H]1C(=O)N[C@@H](C[C@@H]1CCNC1=O)C(=O)COC(F)(F)F` [Compound 603, (S)-5-(2-((2-chloro-6-fluorophenyl)amino)-2-oxoacetyl)-N-((S)-3-oxo-1-((S)-2-oxo-pyrrolidin-3-yl)-4-(trifluoromethoxy)-butan-2-yl)-5-azaspiro[2.4]heptane-6-carboxamide] and `O=C1NCC[C@H]1C[C@H](NC(=O)[C@@H]1CC2(CC2)CN1C(=O)C(O)c1ccccc1C(F)(F)F)C(=O)COC(F)(F)F` (stereo partly drawn) [Compound 406, (6S)-5-(2-hydroxy-2-(2-(trifluoromethyl)-phenyl)acetyl)-N-((S)-3-oxo-1-((S)-2-oxopyrrolidin-3-yl)-4-(trifluoromethoxy)butan-2-yl)-5-azaspiro[2.4]heptane-6-carboxamide] fall in the same range of EC50: 0.05 to 0.2 µM for the first, 0.05 to 0.2 µM for the second.

`O=C1NCC[C@H]1C[C@H](NC(=O)[C@@H]1[C@H]2CCC[C@H]2CN1C(=O)[C@H](O)c1ccc(F)cc1)C(=O)COC(F)(F)F` [Compound 404, (1S,3aR,6aS)-2-((R)-2-(4-fluorophenyl)-2-hydroxyacetyl)-N-((S)-3-oxo-1-((S)-2-oxopyrrolidin-3-yl)-4-(trifluoromethoxy)butan-2-yl)octahydrocyclo-penta[c]pyrrole-1-carboxamide] and `Cc1ccccc1NC(=O)C(=O)N1C[C@@H]2CCC[C@@H]2[C@H]1C(=O)N[C@@H](C[C@@H]1CCNC1=O)C(=O)COC(F)(F)F` [Compound 513, (1S,3aR,6aS)-N-((S)-3-oxo-1-((S)-2-oxopyrrolidin-3-yl)-4-(trifluoromethoxy)butan-2-yl)-2-(2-oxo-2-(o-tolylamino)acetyl)-octahydrocyclo-penta[c]pyrrole-1-carboxamide] cannot be ordered by EC50: < 0.05 µM for the first, < 0.05 µM for the second.

First: [2H]C(C)(C)C(=O)N1CC2(CC2)C[C@H]1C(=O)N[C@@H](C[C@@H]1CCNC1=O)C(=O)COC(F)(F)F [Compound 738, (S)-5-(2-methylpropanoyl-2-d)-N-((S)-3-oxo-1-((S)-2-oxopyrrolidin-3-yl)-4-(trifluoromethoxy)butan-2-yl)-5-azaspiro[2.4]heptane-6-carboxamide]
Second: CN(C)S(=O)(=O)NCC(=O)N1CC2(CC2)C[C@H]1C(=O)N[C@@H](C[C@@H]1CCNC1=O)C(=O)COC(F)(F)F [Compound 692, (S)-5-((N,N-dimethylsulfamoyl)glycyl)-N-((S)-3-oxo-1-((S)-2-oxopyrrolidin-3-yl)-4-(trifluoromethoxy)butan-2-yl)-5-azaspiro[2.4]heptane-6-carboxamide]
The EC50 of the first is lower: 0.05 to 0.2 µM for the first, 0.2 to 0.5 µM for the second. The first is the more potent here.

First: COc1cccc2cc(C(=O)N[C@@H](CC(C)C)C(=O)N[C@@H](C[C@@H]3CCNC3=O)C(=O)COC(F)(F)F)oc12 [Compound 466, 7-methoxy-N-((S)-4-methyl-1-oxo-1-(((S)-3-oxo-1-((S)-2-oxopyrrolidin-3-yl)-4-(trifluoromethoxy)butan-2-yl)amino)pentan-2-yl)benzofuran-2-carboxamide]
Second: CC(C)C[C@@H](O)C(=O)N(C(=O)[C@@H]1C[C@@]2(C)C[C@H]2N1)[C@@H](C[C@@H]1CCNC1=O)C(=O)COC(F)(F)F [Compound 449, (1R,3S,5R)-2-((R)-2-hydroxy-4-methylpentanoyl)-5-methyl-N-((S)-3-oxo-1-((S)-2-oxopyrrolidin-3-yl)-4-(trifluoromethoxy)butan-2-yl)-2-azabicyclo[3.1.0]-hexane-3-carboxamide]
The EC50 of the first is lower: < 0.05 µM for the first, 0.05 to 0.2 µM for the second. The first is the more potent here.

Compared with `[2H]C([2H])([2H])CCCCC(=O)N1CC2(CC2)C[C@H]1C(=O)N[C@@H](C[C@@H]1CCNC1=O)C(=O)COC(F)(F)F` [Compound 757, (S)-5-(hexanoyl-6,6,6-d3)-N-((S)-3-oxo-l-((S)-2-oxopyrrolidin-3-yl)-4-(trifluoromethoxy)butan-2-yl)-5-azaspiro[2.4]heptane-6-carboxamide], `O=C1NCC[C@H]1C[C@H](NC(=O)[C@@H]1CC2(CC2)CN1C(=O)C1(O)CCCC1)C(=O)COC(F)(F)F` [Compound 423, (S)-5-(l-hydroxycyclopentane-1-carbonyl)-N-((S)-3-oxo-1-((S)-2-oxopyrrolidin-3-yl)-4-(trifluoromethoxy)butan-2-yl)-5-azaspiro[2.4]heptane-6-carboxamide] is higher in EC50: < 0.05 µM for the first, 0.05 to 0.2 µM for the second. The first is the more potent here.
